Columns and labels:
[1] = tested on: human proximal tubule (HK-2) cells; assay: Uptake into HK-2 cells quantified by electron spin resonance (ESR); assay type: cell-based; conditions: after incubation with HK-2 cells, ESR (FIG. 5D, 5E)
[2] = tested on: human proximal tubule (HK-2) cells; assay: Superoxide concentration in LPS-treated cultured HK-2 cells measured by DHE-HPLC; assay type: cell-based; conditions: LPS treated HK-2 cells, normalized to protein concentration, n=3 (FIG. 1)
Procedure: Superoxide concentration was normalized to protein concentration. Data represent mean and SEM.
Typically, cultured human proximal tubule (HK-2) cells were treated with LPS to induce superoxide free radical formation. The level of superoxide is indicated by the formation of 2-hydroxyethidium as described, for example by Zielonka et al., (2008) Nat. Protocols 3: 8-21, incorporated herein by reference in its entirety.

[3] = tested on: C57bl/6J mice, bilateral renal ischemia-reperfusion; assay: 30 minute bilateral renal ischemia-reperfusion in mice; assay type: in vivo; conditions: for urinary albumin excretion: 24 hour urine, collected 48 hours following 30 minute bilateral renal ischemia-reperfusion (FIG. 2); for plasma creatinine levels: 48 hours following 30 minute bilateral renal ischemia-reperfusion (FIG. 3); for plasma blood urea nitrogen (BUN): 48 hours following 30 minutes bilateral renal ischemia-reperfusion (FIG. 4); for kidney superoxide (hydrocyanine-3 fluorescence, DHE-HPLC, nitrotyrosine staining): mouse kidney after 30 minutes renal ischemia (FIG. 6)
Procedure: Samples were collected 48 hours following 30 minute bilateral renal ischemia-reperfusion. Data represent mean and SEM.
(§1) Data represent mean and SEM.
BUN was measured 48 hours following 30 minutes bilateral renal ischemia-reperfusion. Data represent mean and SEM.
The effects of the Folate-TEMPOL conjugate of the present disclosure on renal ischemic-reperfusion injury prevention were observed by intravenously administering TEMPOL or Folate-TEMPOL. The renal artery was then clamped for about 30 mins, followed by 48 hours of reperfusion. Parameters measured as indicators of renal tubule injury included creatinine, BUN, and albumin levels both before and after ischemia. Also measured were the TEMPOL and Folate-TEMPOL concentrations in the plasma and the kidney.

[4] = Tissue concentration quantified by ESR in mice after 48 hour intravenous infusion; assay type: in vivo; conditions: kidney, ESR (FIG. 5F)
Excerpt: as §1

[5] = listed as Folate-TEMPOL conjugate

Row | Compound | HK-2 cell concentration of tempol and tempol-folate [1] | HK-2 cell concentration of tempol and tempol-folate ([1]; listed as Folate-TEMPOL) | superoxide concentration in cultured HK-2 cells [2] | superoxide concentration in cultured HK-2 cells ([2]; listed as Folate-TEMPOL) | urinary albumin excretion [3] | urinary albumin excretion [3, 5] | plasma creatinine levels [3] | plasma creatinine levels [3, 5] | plasma blood urea nitrogen (BUN) [3] | plasma blood urea nitrogen (BUN) [3, 5] | renal structure, hematoxylin and eosin (H&E) staining of kidney sections ([3]; kidney sections harvested 48 hours post-ischemia (FIG. 7)) | kidney superoxide (hydrocyanine-3 fluorescence, DHE-HPLC, nitrotyrosine staining) [3] | kidney superoxide (hydrocyanine-3 fluorescence, DHE-HPLC, nitrotyrosine staining) [3, 5] | tissue tempol and tempol-folate concentration [4]
1 | CC1(C)CC(NC(=O)CCC(NC(=O)c2ccc(NCc3cnc4nc(N)nc(O)c4n3)cc2)C(=O)O)CC(C)(C)N1[O] (stereo not drawn) [tempol-folate] | becomes more concentrated in cultured proximal tubule cells | accumulates in cultured proximal tubule cells to a greater extent than un-conjugated Tempol | effectively scavenged superoxide production | inhibits superoxide as efficiently as TEMPOL alone | prevents kidney injury more effectively than free tempol | the reduction was greater than if TEMPOL alone was used | preserves glomerular filtration rate from ischemia-reperfusion more effectively than unconjugated tempol | the reduction was greater than if TEMPOL alone was used | proximal tubule function is protected from ischemic injury by tempol-folate compared with free tempol | the reduction was greater than if TEMPOL alone was used | renal structure is protected from renal ischemia-reperfusion injury by tempol-folate treatment more efficiently than by ternpol treatment | more effective at scavenging superoxide in the kidney | significantly reduced | becomes more concentrated in cultured proximal tubule cells and in vivo in kidneys of mice compared with tempol
2 | CC1(C)CC(O)CC(C)(C)N1[O] [Tempol, 4-hydroxy-2,2,6,6-tetramethylpiperidine 1-oxyl] |  |  | effectively scavenged superoxide production |  |  |  |  |  |  |  |  |  |  | 
